Key:
MCF-7 breast cancer cell = assay: MTT cell growth inhibition assay, MCF-7 breast cancer cells; format: cell-based; settings: Homo sapiens, MCF7, mean ± SD of three experiments
Excerpt: (§1) Initially, we designed and synthesised seven compounds—9a and 12a1–12a6—and evaluated the anticancer activity and aqueous solubility. We evaluated the cytotoxic effects of these stilbene nitrile analogues against a panel of four human cancer cell lines (HCT-116, BEL-7402, MCF-7 and AGS) and two human non-cancerous normal cell lines (L-02 and MCF-10A), using CA-4 as a control. The compounds were screened for aqueous solubility in 0.01 M PBS using a high throughput UV method. […] It is possible that the size of the nitrogen heterocycle had little effect on the activity of these compounds. […] The aqueous solubility of all the compounds 12a1–12a6 was higher than that of 9a, particularly that of 12a1 and 12a2 containing piperazine rings. […] Of the six compounds with improved aqueous solubility, 12a1 had the best activity.
(§2) All human cell lines were used in this study. AGS gastric cancer cell, BEL-7402 liver cancer cell, HCT-116 colorectal cancer cell, L-02 normal liver cell, MCF-7 breast cancer cell, and MCF-10A normal breast cell were initially purchased from American Type Culture Collection (ATCC, Manassas, VA, USA). RPMI-1640 media, DMEM and FBS, were provided by Gibco Company. The cells were maintained in DMEM or RPMI-1640, supplemented with 10% FBS, 100 IU/mL penicillin and […] streptomycin, and at 37 °C in a humidified atmosphere containing 5% CO2.
(§3) The experiment was carried out according to the method of reference.

L-02 normal liver cell = assay: MTT cell growth inhibition assay, L-02 normal liver cells; format: cell-based; settings: Homo sapiens, mean ± SD of three experiments
Excerpt: as §1, §2, §3

AGS gastric cancer cell = assay: MTT cell growth inhibition assay, AGS gastric cancer cells; format: cell-based; settings: Homo sapiens, mean ± SD of three experiments
Excerpt: as §1, §2, §3

[1] = Drug-plasma protein binding rate, equilibrium dialysis; format: in vitro ADME; settings: rat, equilibrium dialysis vs phosphate buffer pH 7.4, 4 °C
Procedure: Compounds at 90 μM concentration were mixed with rat plasma, and the mixtures were subjected to equilibrium dialysis versus phosphate buffer (pH 7.4) at 4 °C for 48 h. The dialysis membrane of molecular weight cut off 1 kDa was used. Dialysis experiments were done in triplicate. On completion of the dialysis period, absorb a certain amount of buffer and plasma, respectively, and add methanol to treat the sample. Dialysis samples were analysed by HPLC. The plasma protein binding rate of the compound was calculated as follows: protein binding rate/% = (plasma drug concentration inside dialysis bag—dialysate drug concentration outside dialysis bag)/plasma drug concentration inside dialysis bag × 100%. […]
injection volume was 3 μL. The column temperature was set at 40℃.
1.7. The drug-plasma protein binding rate assessment
Compound 12a1 at 90 μM concentration were mixed with rats plasma. The mixtures were subjected to equilibrium dialysis versus phosphate buffer pH 7.4 buffer at 4℃ for 48 hour using equilibrium dialysis. The dialysis membrane of molecular weight cutoff 1 kDa was used. […] Dialysis samples were analyzed by HPLC, The plasma protein binding rate of the compound was calculated as follows: protein binding rate ∕ % = (plasma drug concentration inside dialysis bag − dialysate drug concentration outside dialysis bag) ∕ plasma drug concentration inside dialysis bag × […]

[2] = system: BEL-7402 liver cancer cell; assay: MTT cell growth inhibition assay, BEL-7402 liver cancer cells; format: cell-based; settings: Homo sapiens, mean ± SD of three experiments, read-out: IC50 BEL-7402 Hepatoma Cells
Excerpt: as §1, §2, §3

[3] = system: MCF-10A normal breast cell; assay: MTT cell growth inhibition assay, MCF-10A normal breast cells; format: cell-based; settings: Homo sapiens, mean ± SD of three experiments, read-out: IC50 MCF-10A Normal Breast Epithelial Cells
Excerpt: as §1, §2, §3

IC50 (MCF-7 breast cancer cell): 16.1 ± 2.7 µM | IC50 (AGS gastric cancer cell): 10.7 ± 0.52 µM | fraction unbound at 48 h, 90 μM [1]: 0.393 | IC50 [2]: 6.36 ± 0.61 µM
SMILES: COc1cc(/C(C#N)=C/c2ccc(NC(=O)CN3CCN(C)CC3)cc2)cc(OC)c1OC [12a1]
IC50 (L-02 normal liver cell): 32.7 ± 1.44 µM | IC50 [3]: 20.9 ± 0.78 µM

— publication PMC9963121, “Development of Combretastatin A-4 Analogues as Potential Anticancer Agents with Improved Aqueous Solubility” (Molecules, 2023)
